The target of data set [1] is Substance-P receptor (Cavia porcellus, UniProt P30547). As to the kind of experiment: Antagonism of the guinea pig tachykinin NK1 receptor. The class given is functional.
In data set [2] the target is T1, Histamine H1 receptor (Homo sapiens, UniProt P35367). In kind it is functional.
The target of data set [3] is T1, Histamine H1 receptor. Kind of data set: Compound was evaluated for the antagonistic activity against H1 receptor. In kind it is functional.
For data set [4], the target named is T2, Substance-K receptor (Homo sapiens, UniProt P21452).
T2 sequence (P21452 whole entry): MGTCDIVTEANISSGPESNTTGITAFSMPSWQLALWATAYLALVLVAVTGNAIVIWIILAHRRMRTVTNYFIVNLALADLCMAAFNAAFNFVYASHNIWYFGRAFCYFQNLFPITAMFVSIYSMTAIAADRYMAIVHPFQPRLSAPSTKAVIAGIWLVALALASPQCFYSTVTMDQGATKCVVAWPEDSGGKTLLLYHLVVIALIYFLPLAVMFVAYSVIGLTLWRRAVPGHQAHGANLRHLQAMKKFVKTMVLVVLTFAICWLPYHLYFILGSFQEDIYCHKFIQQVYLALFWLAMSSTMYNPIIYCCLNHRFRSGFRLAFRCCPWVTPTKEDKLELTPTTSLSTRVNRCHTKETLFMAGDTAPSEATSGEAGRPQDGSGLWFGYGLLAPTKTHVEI
As to the kind of experiment: Compound was evaluated for the antagonistic activity against Tachykinin receptor 2. In kind it is functional.

Data set [5] concerns the target Substance-P receptor (Homo sapiens, UniProt P25103). As to the kind of experiment: Compound was evaluated for the antagonistic activity against NK1 receptor. In kind it is functional.
Data set [6] is filed under the species Cavia porcellus. As to the kind of experiment: Inhibition of histamine-induced contraction of guinea pig ileum in a concentration-dependent fashion. The class given is functional. The settings on record: read-out: pA2 (converted).
Data set [7] is filed under the species Cavia porcellus. Kind of data set: Compound with maleate salt was tested for inhibition of histamine-induced skin wheal response in guinea pigs. The class given is functional.
Data set [8] can be described thus: Compound was tested for its solubility at pH 7.4. The settings on record: buffer. In kind it is physicochemical.
Data set [9] is described as follows: Dose-dependent inhibition of SP-induced increases in phosphatidylinositol turnover in UC11 cells. To be noted: Homo sapiens, read-out: pA2 (converted). In kind it is functional, cell-based.
A short description of data set [10]: Compound was calculated log P. The settings on record: pH 7.4.

Converted amounts (≈) assume the structure as drawn.

T1 sequence (P35367 whole entry): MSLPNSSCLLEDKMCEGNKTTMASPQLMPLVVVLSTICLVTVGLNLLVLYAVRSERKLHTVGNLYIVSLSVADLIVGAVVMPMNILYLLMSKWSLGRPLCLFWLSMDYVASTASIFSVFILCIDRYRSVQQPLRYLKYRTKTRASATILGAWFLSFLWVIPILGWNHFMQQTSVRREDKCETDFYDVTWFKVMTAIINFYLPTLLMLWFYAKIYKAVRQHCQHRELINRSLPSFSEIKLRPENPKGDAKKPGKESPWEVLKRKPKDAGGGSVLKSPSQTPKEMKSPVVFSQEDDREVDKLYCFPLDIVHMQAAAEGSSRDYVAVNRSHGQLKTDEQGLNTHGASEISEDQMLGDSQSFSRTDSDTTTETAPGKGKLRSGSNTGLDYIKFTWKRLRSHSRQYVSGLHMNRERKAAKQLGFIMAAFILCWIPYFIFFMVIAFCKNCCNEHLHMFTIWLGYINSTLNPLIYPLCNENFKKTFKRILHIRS
Sequence of Substance-P receptor (Cavia porcellus, UniProt P30547) (P30547 whole entry): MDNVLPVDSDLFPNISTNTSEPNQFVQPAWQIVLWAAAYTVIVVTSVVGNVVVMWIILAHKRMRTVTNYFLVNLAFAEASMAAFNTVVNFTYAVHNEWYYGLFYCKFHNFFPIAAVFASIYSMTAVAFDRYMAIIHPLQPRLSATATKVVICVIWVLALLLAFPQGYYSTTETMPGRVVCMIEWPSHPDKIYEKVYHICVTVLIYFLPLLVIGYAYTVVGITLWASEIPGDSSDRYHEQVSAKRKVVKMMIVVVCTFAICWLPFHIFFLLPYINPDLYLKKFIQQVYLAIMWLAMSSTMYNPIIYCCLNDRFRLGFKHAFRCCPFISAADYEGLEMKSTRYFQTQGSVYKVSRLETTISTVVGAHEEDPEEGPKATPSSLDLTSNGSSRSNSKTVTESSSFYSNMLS
Sequence of Substance-P receptor (Homo sapiens, UniProt P25103) (P25103 whole entry): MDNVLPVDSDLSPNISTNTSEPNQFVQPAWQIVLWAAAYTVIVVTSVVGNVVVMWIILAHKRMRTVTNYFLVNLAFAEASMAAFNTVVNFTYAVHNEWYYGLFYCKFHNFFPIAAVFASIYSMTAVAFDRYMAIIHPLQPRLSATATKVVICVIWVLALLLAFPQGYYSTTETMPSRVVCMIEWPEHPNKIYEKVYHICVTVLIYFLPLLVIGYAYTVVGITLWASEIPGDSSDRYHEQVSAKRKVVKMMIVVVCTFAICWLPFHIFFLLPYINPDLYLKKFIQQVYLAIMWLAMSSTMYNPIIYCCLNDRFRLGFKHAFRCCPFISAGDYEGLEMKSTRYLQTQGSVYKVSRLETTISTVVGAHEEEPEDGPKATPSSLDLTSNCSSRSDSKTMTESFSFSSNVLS

Consider `COc1cc(C(=O)N2CCC(CCN3CCC(C(=O)c4nc5ccccc5n4Cc4ccc(F)cc4)CC3)(c3ccc(F)cc3F)C2)cc(OC)c1OC` (centres undefined), for which the IC50 in [1] amounted to 0.296 µM. For `COC(=O)c1ccccc1OCCCn1c(C(=O)C2CCN(CCC3(c4ccccc4)CCN(C(=O)c4cc(OC)c(OC)c(OC)c4)C3)CC2)nc2ccccc21` (centres undefined), the figures for the IC50 in data set [1] and in data set [2] were 0.016 µM and 0.994 µM, respectively.

`CCOCCn1c(C(=O)C2CCN(CCC3(c4ccccc4)CCN(C(=O)c4cc(OC)c(OC)c(OC)c4)C3)CC2)nc2ccccc21` (centres undefined) yielded an IC50 in [1] of 0.026 µM. In the case of `COC(=O)c1ccc(Cn2c(C(=O)C3CCN(CCC4(c5ccccc5)CCN(C(=O)c5cc(OC)c(OC)c(OC)c5)C4)CC3)nc3ccccc32)cc1` (centres undefined), the results for the IC50 in data set [1] and in data set [2] were 0.023 µM and 1.21 µM, respectively. Taken in the same sequence, the figures for `COc1cc(C(=O)N2CCC(CCN3CCC(C(=O)c4nc5ccccc5n4CCOCc4ccco4)CC3)(c3ccccc3)C2)cc(OC)c1OC` (centres undefined) were 0.012 µM and 0.446 µM.

In turn, `COc1cc(C(=O)N2CCC(CCN3CCC(C(=O)c4nc5ccccc5n4Cc4cccnc4)CC3)(c3ccccc3)C2)cc(OC)c1OC` (centres undefined) gave an IC50 in [1] of 0.027 µM.

Consider `COc1cc(C(=O)N2CC[C@](CCN3CCC(C(N)=O)(c4ccccc4)CC3)(c3ccc(Cl)c(Cl)c3)C2)cc(OC)c1OC`, for which the IC50 stood at 10 µM in data set [3], 0.008 µM in data set [4] and 0.003 µM in data set [5]. Turning to `COc1cc(C(=O)N2CCC(CCN3CCC(C(=O)c4nc5ccccc5n4Cc4ccc(F)cc4)CC3)(c3ccc(Cl)c(Cl)c3)C2)cc(OC)c1OC` (centres undefined), the IC50 turned out to be 0.092 µM in [1] and 0.124 µM in [2]. `COc1cc(C(=O)N2CCC(CCN3CCC(C(=O)c4nc5ccccc5[nH]4)CC3)(c3ccccc3)C2)cc(OC)c1OC` (centres undefined) yielded an IC50 in data set [1] of 0.036 µM. `COc1cc(C(=O)N2CCC(CCN3CCC(C(=O)c4nc5ccccc5n4Cc4ccncc4)CC3)(c3ccccc3)C2)cc(OC)c1OC` (centres undefined): half-maximal inhibition in data set [1] (IC50) required 0.037 µM. Still for that read-out and setting: the result for `COc1ccc(C2(CCN3CCC(C(=O)c4nc5ccccc5n4Cc4ccccn4)CC3)CCN(C(=O)c3cc(OC)c(OC)c(OC)c3)C2)cc1` (centres undefined) reads 0.042 µM; that for `COc1cc(C(=O)N2CCC(CCN3CCC(C(=O)c4nc5ccccc5n4Cc4ccc(F)cc4)CC3)(c3ccccc3)C2)cc(OC)c1OC` (centres undefined), 0.034 µM; that for `COc1cc(C(=O)N2CCC(CCN3CCC(C(=O)c4nc5ccccc5n4Cc4ccccn4)CC3)(c3ccc(Cl)c(Cl)c3)C2)cc(OC)c1OC` (centres undefined), 0.032 µM. Take `COc1cc(C(=O)N2CCC(CCN3CCC(C(=O)c4nc5ccccc5n4Cc4ccc(C(=O)O)cc4)CC3)(c3ccccc3)C2)cc(OC)c1OC` (centres undefined): the results for the IC50 in data set [1] and in [2] were 0.036 µM and 3.42 µM, respectively. Taken in the same sequence, the figures for `COc1cc(C(=O)N2CCC(CCN3CCC(C(=O)c4nc5ccccc5n4CCCOc4ccccc4C(=O)O)CC3)(c3ccccc3)C2)cc(OC)c1OC` (centres undefined) were 0.027 µM and 9.45 µM. For `COc1ccc(C2(CCN3CCC(C(=O)c4nc5ccccc5n4Cc4ccc(F)cc4)CC3)CCN(C(=O)c3cc(OC)c(OC)c(OC)c3)C2)cc1OC` (centres undefined), the Kb in data set [6] is 0.0302 µM; in data set [9], 0.0661 µM. The ED50 in data set [7] turned out to be 18.9 mg/kg. Also, in data set [8], the solubility is under 0.0001 mg/mL. Further, the IC50 in [2] is 0.309 µM. Also, in data set [10], the logP is 4.72. Turning to `COc1cc(C(=O)N2CCC(CCN3CCC(C(=O)c4nc5ccccc5n4Cc4ccc(F)cc4)CC3)(c3ccc(C(F)(F)F)cc3)C2)cc(OC)c1OC` (centres undefined), the IC50 in data set [1] came out at 0.117 µM.

Consider `COc1ccc(CCN2CCC(C(=O)c3nc4ccccc4n3Cc3ccc(F)cc3)CC2)cc1`, for which the IC50 was 3.39 µM in data set [4] and 5.2 µM in data set [5]. With `COc1cc(C(=O)N2CCC(CCN3CCC(C(=O)c4nc5ccccc5n4Cc4ccco4)CC3)(c3ccccc3)C2)cc(OC)c1OC` (centres undefined), the IC50 in data set [1] came out at 0.021 µM.

As to `COc1cc(C(=O)N2CCC(CCN3CCC(C(=O)c4nc5ccccc5n4Cc4ccccn4)CC3)(c3ccccc3)C2)cc(OC)c1OC` (centres undefined), the IC50 in data set [1] was found to be 0.027 µM. In addition, the ED50 in [7] worked out at 10.3 mg/kg. In [8], this compound showed a solubility of 0.038 mg/mL (≈ 55.2 µM). The logP in data set [10] was 3.22. Compound `COc1ccccc1CN[C@H]1C2CCN(CC2)[C@H]1C(c1ccccc1)c1ccccc1` [CP-96345] had an IC50 in data set [2] of about 10 µM. `CC(C)(C)c1ccc(C(O)CCCN2CCC(C(O)(c3ccccc3)c3ccccc3)CC2)cc1` (centres undefined) [TERFENADINE] gave an IC50 in data set [1] of over 10 µM.

The term IC50 denotes the concentration that gives 50% inhibition. Read a low IC50 as greater potency. The ED50 is the dose at which the effect has come halfway, by size or by number of responders. One may read the solubility as the dissolved amount per volume that the medium holds. The logP is a log measure of how a compound divides between an organic and an aqueous phase.

These data come from ChEMBL document CHEMBL1150559 (Bioorg Med Chem Lett, 1997).
